Measurements published in US12227520B2 (priority 2019, dated 2025).
pEC50: −log10 of the molar value. Read-outs that look alike come from different tables or passages of the source.

How the values were obtained:
HIV-1 (IIIB) = assay: Antiviral assay in MT-4 cells (HIV MT-4 antiviral assay); assay type: cell-based; conditions: Human immunodeficiency virus 1, IIIB, MT4, 120 h, HIV-1 (IIIB) in MT-4 cells, 5 days incubation; read-out: EC50
Outline: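 Read-out is CellTiter-Glo chemiluminescence after 5-day culture at 37° C, giving protection of MT-4 cells from HIV-1 IIIB cytopathicity. Compounds tested in 1:3 dilution series in complete RPMI; controls were no drug, mock infection and 5 μM AZT.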

[1] = Cytotoxicity assay in MT-4 cells; assay type: cell-based, human; conditions: human, uninfected MT-4 cells, 5 days incubation; read-out: CC50
Outline: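 For cytotoxicity, uninfected MT-4 cells were incubated with compounds 5 days at 37 °C, with 10 μM puromycin marking base cytotoxicity. Parallel plates used HIV-1 IIIB-infected (1:250 stock dilution) or mock cells with 5 μM AZT and no-drug controls. Read-out: CellTiter-Glo chemiluminescence.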

pLai RLuc reporter virus = assay: microbe, parasite or virus in culture; assay type: cell-based, HIV; conditions: Human immunodeficiency virus 1, 72 h
Outline: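 Read-out is Renilla luciferase after 72 h at 37 °C in MT-4 cells infected 2 h beforehand with pLai RLuc reporter virus; compounds diluted 1:3.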

[2] = read-out: Antiviral Serum Shift RLuc 50% HS, HS/CCM (RPMI media, 10% FBS, 50% HS, 1% P/S), 72-h incubation
[3] = read-out: Antiviral Serum Shift RLuc CCM, CCM (RPMI media, 10% FBS, 1% P/S), 72-h incubation

Structure (SMILES) | pEC50 (HIV-1 (IIIB)) | CC50 at 5 days [1] [nM] | pEC50 (pLai RLuc reporter virus; [2]) | pEC50 (pLai RLuc reporter virus; [3])
C[C@]1(F)CCCN2C[C@H]1n1cc(C(=O)NCc3ccc(F)cc3F)c(=O)c(O)c1C2=O [Example 60-1, (6S,7R)—N-(2,4-difluorobenzyl)-6-fluoro-12-hydroxy-6-methyl-1,11-dioxo-1,4,5,6,7,11-hexahydro-3H-2,7-methanopyrido[1,2-a][1,4]diazonine-10-carboxamide] | 8.75 | 13900 | 8.80 | 9.34
O=C(NCc1ccc(F)c(Cl)c1F)c1cn2c(c(O)c1=O)C(=O)N1C[C@@H]2CCc2ccc(F)cc21 [Example 90-2, (12S)—N-(3-chloro-2,4-difluorobenzyl)-3-fluoro-7-hydroxy-6,8-dioxo-6,8,13,14-tetrahydro-12H-5,12-methanobenzo[e]pyrido[1,2-a][1,4]diazonine-9-carboxamide] | 8.62 | > 20800 | 8.92 | 9.44
O=C(NCc1c(F)cc(F)cc1F)c1cn2c(c(O)c1=O)C(=O)N1CCC[C@@H](O)C[C@H]2C1 [Example 82-2, (6R,8S)-6,13-dihydroxy-1,12-dioxo-N-(2,4,6-trifluorobenzyl)-1,3,4,5,6,7,8,12-octahydro-2,8-methanopyrido[1,2-a][1,4]diazecine-11-carboxamide] | 8.02 | > 50000 | 8.52 | 8.68
O=C(NCc1c(F)cc(F)cc1F)c1cn2c(c(O)c1=O)C(=O)N1CC(F)CC[C@H]2C1 (stereo partly drawn) [Example 178, (7S)-4-fluoro-12-hydroxy-1,11-dioxo-N-(2,4,6-trifluorobenzyl)-1,4,5,6,7,11-hexahydro-3H-2,7-methanopyrido[1,2-a][1,4]diazonine-10-carboxamide] | 8.67 | 16700 | 8.18 | 9.37
O=C(NCc1ccc(F)cc1F)c1cn2c(c(O)c1=O)C(=O)N1CCCC(F)[C@H]2C1 (stereo partly drawn) [Example 172-2, (7R)—N-(2,4-difluorobenzyl)-6-fluoro-12-hydroxy-1,11-dioxo-1,4,5,6,7,11-hexahydro-3H-2,7-methanopyrido[1,2-a][1,4]diazonine-10-carboxamide] | 8.83 | 12800 | 8.58 | 9.38
O=C(NCc1c(F)cc(F)cc1F)c1cn2c(c(O)c1=O)C(=O)N1CCc3cc(Cl)ccc3[C@@H]2C1 [Example 136-2, (13R)-10-chloro-4-hydroxy-3,5-dioxo-N-(2,4,6-trifluorobenzyl)-3,5,8,13-tetrahydro-7H-6,13-methanobenzo[g]pyrido[1,2-a][1,4]diazonine-2-carboxamide] | 8.81 | 6550 | 8.24 | 9.41
O=C(NCc1c(F)cc(F)cc1F)c1cn2c(c(O)c1=O)C(=O)N1CCCC[C@@]2(CF)C1 [Example 163-1, (7S)—N-(2,4,6-trifluorobenzyl)-7-(fluoromethyl)-12-hydroxy-1,11-dioxo-1,4,5,6,7,11-hexahydro-3H-2,7-methanopyrido[1,2-a][1,4]diazonine-10-carboxamide] | 8.90 | 20200 | 7.92 | 10.17
O=C(NCc1c(F)cc(F)cc1F)c1cn2c(c(O)c1=O)C(=O)N1C[C@@H]2CCc2sccc21 [Example 104-1, (11S)-6-hydroxy-5,7-dioxo-N-(2,4,6-trifluorobenzyl)-5,7,12,13-tetrahydro-11H-4,11-methanopyrido[1,2-a]thieno[3,2-e][1,4]diazonine-8-carboxamide] | 8.83 | 11900 | 8.70 | 9.49
O=C(NCc1c(F)cc(F)cc1F)c1cn2c(c(O)c1=O)C(=O)N1Cc3ccccc3C[C@H]2C1 [Example 70, (6S)-1-hydroxy-2,14-dioxo-N-(2,4,6-trifluorobenzyl)-2,7,12,14-tetrahydro-6H-6,13-methanobenzo[f]pyrido[1,2-a][1,4]diazonine-3-carboxamide] | 8.85 | 13300 | 8.88 | 9.49
